# Laboratory results: publication PMC10814725, “In Vitro Anti-Inflammatory Study of Limonoids Isolated from Chisocheton Plants” (Current Issues in Molecular Biology, 2024)
# Like-named read-outs stand apart in the source and are kept apart here.
# Legend:
# [1] = tested on: IL-1β; assay: ELISA of IL-1β production in LPS-stimulated THP-1 cells; assay type: cell-based, human; conditions: 10 µM, compared to LPS (+)-stimulated group
# Procedure: (§1) The logarithmic growth phase of THP-1 cells was achieved by seeding in 96-well plates at a density of 5 × 10^4 cells/well and differentiated for 24 h in the presence of PMA (0.5 μM solution in medium). After 24 h of incubation, the culture medium was removed from the 96-well plate and the cells were washed with PBS. Fresh RPMI-1640 medium supplemented with 0.1% FBS and 1% Penicillin–Streptomycin was added to each well and incubated at 37 °C overnight. The cells were pretreated with 17 limonoids at the corresponding concentration for 1 h, followed by the addition of LPS (10 ng/mL) and then incubation at 37 °C for 18 h. Finally, 50 μL of each culture supernatant solution was taken to determine the concentrations of IL-6, MCP-1, and IL-1β using the corresponding commercially available human ELISA kits following the manufacturer’s instructions. The analyte concentration in the supernatant was measured in pg/mL, and the inhibition level was expressed as a fold change compared to the LPS (−) control group. To determine the IC50 value, the dose-response data were normalized to the LPS-stimulated-only group, and the percentage of inhibition was calculated using the following formula: % Inhibition=(Absorbance of LPS+ control−Absorbance of compound treatment with LPS)/(Absorbance of LPS+ control−Absorbance of LPS− control)×100
# (§2) Furthermore, the % inhibition data were interpolated into linear equations to determine the IC50 values.
# [2] = tested on: TNF-α; assay: ELISA of TNF-α production in LPS-stimulated THP-1 cells; assay type: cell-based, human; conditions: for Effect on TNF-α level: 10 µM, compared to LPS (+)-stimulated group, THP-1 cells; for IC50: Homo sapiens, THP-1, 18 h, LPS-stimulated (10 ng/mL) THP-1 cells, 1, 5, 10, 20 µM, 18 h, read-out: TNF-α IC50; for TNF-α SI (selectivity index, CC50/IC50): THP-1 CC50 / TNF-α IC50
# [3] = Cell viability by CCK-8, THP-1 cells; assay type: cell-based; conditions: human, PMA-differentiated THP-1 cells; for CC50 at 18 h: concentration causing 50% cytotoxicity against THP-1 cells
# In short: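 THP-1 cells seeded at 5 × 10^4 cells/well in 96-well plates were differentiated with 0.5 μM PMA for 24 h, washed with PBS, and held overnight at 37 °C in RPMI-1640 containing 0.1% FBS and 1% penicillin–streptomycin. After 1 h compound pretreatment and 18 h further incubation, 10% (v/v) CCK-8 was added for 1 h. Absorbance was read at 405 nm, and background-corrected viability was expressed relative to untreated control cells.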
# [4] = tested on: TLR4-dependent NF-kB activation in HEK-Blue hTLR4 cells; assay: SEAP reporter gene assay, antagonist effect on LPS-stimulated TLR4-dependent NF-κB activation; assay type: cell-based, human; conditions: 20 µM, LPS 10 ng/mL, 18 h, vs. LPS stimulated-only group
# Procedure: The SEAP Reporter Gene Assay was conducted as previously described. HEK-Blue^TM hTLR4 cells (2 × 10^4 cells/well) were seeded in 96-well plates and were serum-starved for 24 h at 37 °C in a 5% carbon dioxide atmosphere. After incubation, the culture medium was aspirated, and the cells were washed with saline. High-glucose D-MEM supplemented with 0.1% FBS and 1% penicillin-streptomycin was added and treated with or without the 17 limonoids at a concentration of 20 µM for 1 h, followed by LPS addition at a concentration of 10 ng/mL for the LPS-stimulated group. After incubation at 37 °C for 18 h, the supernatants were collected and PNPP in PBS solution (0.8 mM, 100 μL) was added, followed by 4 h of shading at 25 °C. The optical density (OD) of the samples was measured at 405 nm using a microplate reader (BioTek Cytation 5 Cell Imaging Multimode Reader, Agilent Technologies, Santa Clara, CA, USA).
# [5] = tested on: IL-6; assay: ELISA of IL-6 production in LPS-stimulated THP-1 cells; assay type: cell-based, human; conditions: for Effect on IL-6 level: 10 µM, compared to LPS (+)-stimulated group, THP-1 cells; for IC50: Homo sapiens, THP-1, 18 h, LPS-stimulated (10 ng/mL) THP-1 cells, 1, 5, 10, 20 µM, 18 h
# Procedure: as §1, with “Fresh RPMI-1640 medium supplemented with 0.1% FBS and 1% Penicillin–Streptomycin was added to each well and incubated at 37 °C overnight.” left out
# as §2
# [6] = tested on: MCP-1; assay: ELISA of MCP-1 production in LPS-stimulated THP-1 cells; assay type: cell-based, human; conditions: for Effect on MCP-1 level: 10 µM, compared to LPS (+)-stimulated group, THP-1 cells; for IC50: Homo sapiens, LPS-stimulated (10 ng/mL) THP-1 cells, 1, 5, 10, 20 µM, 18 h; for MCP-1 SI (selectivity index, CC50/IC50): THP-1 CC50 / MCP-1 IC50
# Procedure: as §1, with “Fresh RPMI-1640 medium supplemented with 0.1% FBS and 1% Penicillin–Streptomycin was added to each well and incubated at 37 °C overnight.” left out
# as §2
# [7] = Cell viability by CCK-8, HEK-Blue hTLR4 cells; assay type: cell-based; conditions: human
# In short: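 CCK-8 read-out. HEK-Blue hTLR4 cells (2 × 10^4/well) serum-starved 24 h, then in high-glucose D-MEM with 0.1% FBS pretreated ±20 µM limonoids for 1 h before 10 ng/mL LPS; CCK-8 (10% v/v) added after 18 h and incubated 1 h at 37 °C. RAW264.7 viability measured likewise with CCK-8.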
# [8] = LPS 10 ng/mL, read-out: Viability Cell (%) THP-1 LPS-Induced (10 ng/mL)
# [9] = without LPS, read-out: Viability Cell (%) THP-1 Without LPS
# [10] = Viability Cell (%) HEK-Blue hTLR4 LPS-Induced (10 ng/mL)
# [11] = Viability Cell (%) HEK-Blue hTLR4 Without LPS
SMILES,Effect on IL-1β level [1],Effect on TNF-α level [2],IC50 [2] [µM],"TNF-α SI (selectivity index, CC50/IC50) [2]","viability at 18 h, 10 µM [3, 8] [%]","viability at 18 h, 10 µM [3, 9] [%]",CC50 at 18 h [3] [µM],Inhibition of SEAP release (NF-κB activity inhibition) [4],Effect on IL-6 level [5],IC50 [5] [µM],"IL-6 SI (selectivity index, CC50/IC50) ([5]; THP-1 CC50 / IL-6 IC50)",Effect on MCP-1 level [6],IC50 [6] [µM],"MCP-1 SI (selectivity index, CC50/IC50) [6]","viability at 18 h, 20 µM [7, 10] [%]","viability at 18 h, 20 µM [7, 11] [%]"
"CC(=O)O[C@H]1[C@@H](O)[C@@]2(C)C3=CC[C@@H](c4ccoc4)[C@]3(C)CC[C@@H]2[C@@]2(C)C=CC(=O)C(C)(C)[C@H]12 [Compound 3, 6α-O-acetyl-7-deacetylnimocinol]",significantly reduced,significantly reduced,9.18,2.21,> 99.9,> 99.9,20.3,significantly inhibited SEAP release,significantly reduced,3.06,6.63,significantly reduced,2.11,9.61,6.79 ± 6.22,20.7 ± 3.08
"CC(=O)O[C@H]1[C@@H](OC(C)=O)[C@@]2(C)C3=CC[C@@H](c4ccoc4)[C@]3(C)CC[C@@H]2[C@@]2(C)C=CC(=O)C(C)(C)[C@H]12 [Compound 5, dysobinin]",significantly reduced,significantly reduced,5.76,2.53,52 ± 6.51,66.7 ± 6.02,14.6,significantly inhibited SEAP release,significantly reduced,1.64 ± 0.97,,significantly reduced,0.87,16.76,23.6 ± 2.61,43.3 ± 6.02
